Where a name gives a salt, the structure may show the parent alone.
Legend:
[1] = MDZ metabolic activity in hepatic microsomes; assay type: in vitro ADME, mouse; conditions: cyp3a (KO/KO)/uPA(+/+)/SCID(+/+) chimeric mice [N2F1] compared with PXB mice; MDZ 50 umol/L, 0.1 mg/mL microsomes, 37° C., 5 minutes; 1'- and 4-hydroxylated metabolites
Procedure: (§1) On weeks 10 to 11 after transplantation (14-week-old), each of chimeric mice and non-transplanted cyp3a (KO/KO)/uPA(+/+)/SCID(+/+) mice [N2F1] was dissected and thus the liver, the small intestine, and blood were collected. The collected liver and small intestine were cut into appropriate sizes. The resulting pieces were immersed in 1 mL of RNA Later (Life Technologies Corporation, Cat No. AM7020), stored at 4° C. overnight, and then stored at −80° C. In addition, portions of the liver and the small intestine were embedded in an OCT compound (Tissue-Tek) for the preparation of frozen sections, and then cryopreserved with liquid nitrogen. Microsomes were prepared from the remaining small intestine and liver portions by procedures such as centrifugation. The thus prepared microsomes were stored at −80° C.
(§2) MDZ metabolic activity was determined using microsomes from the liver and the small intestine from each mouse prepared in Example 2 above. In an experiment using hepatic microsomes, MDZ with a final concentration of 50 umol/L was incubated in hepatic microsomes with a final concentration of 0.1 mg/mL at 37° C. for 5 minutes. […] 1′- and 4-hydroxylated metabolites of MDZ were measured using LC-MS/MS.

[2] = MDZ metabolic activity in small intestinal microsomes; assay type: in vitro ADME, mouse; conditions: MDZ 50 umol/L, 0.5 mg/mL microsomes, 37° C., 10 minutes
Procedure: as §1, §2

[3] = Metabolic studies for nefazodone hydrochloride (metabolite profiles in blood plasma and urine after peroral administration); assay type: in vivo, mouse
Procedure: Eight (8) mg of free/mL nefazodone hydrochloride suspended in 0.5% methylcellulose (resulting in a dose of […].) was forcibly administered perorally twice in a volume of 5 mL/kg b.w. at each instance to four (two male and two female mice) cyp3a (KO/KO)/uPA(+/+)/SCID(+/+) mice [N4F1] (week 8 after transplantation (11-week-old)) obtained in Example 8 above by transplantation of human hepatocytes.
Immediately after the first peroral administration of nefazodone hydrochloride, the animals were housed in metabolic cages. Urine was sampled at a time 0 to 8 hours after administration and at a time 8 to 24 hours after administration, at room temperature. After the sampling of urine, the 2nd peroral administration of nefazodone hydrochloride was performed. One (1) hour after administration, blood, small intestine, and liver samples were collected. Immediately after blood collection, centrifugation (1000×g, 4° C. for 10 minutes) was performed to prepare blood plasma. Immediately after collection, urine and blood plasma were stored at −80° C. The PXB mice and the SCID(+/+) mice were similarly treated, and thus blood plasma and urine samples were obtained.
Acetonitrile was added to the thus obtained blood plasma and urine, in an amount equivalent thereto, for deproteinization. Centrifugal filtration (Ultrafree-MC centrifugal filtration tube; 0.45 μm, 9500×g, 2 min, 4° C.) was then performed. The thus obtained filtrates were designated as analytical samples.

[4] = PXB mice, 10 mg free/kg peroral, 1 hour after 2nd administration
[5] = SCID(+/+) mice, 10 mg free/kg peroral, 1 hour after 2nd administration
[6] = cyp3a (KO/KO)/uPA(+/+)/SCID(+/+) chimeric mice [N4F1], 10 mg free/kg peroral, 1 hour after 2nd administration

Row | Structure (SMILES) | MDZ metabolic activity in hepatic microsomes [1] | MDZ metabolic activity in small intestinal microsomes ([2]; cyp3a (KO/KO)/uPA(+/+)/SCID(+/+) chimeric mice [N2F1] compared with PXB mice) | MDZ metabolic activity in small intestinal microsomes ([2]; cyp3a (KO/KO)/uPA(+/+)/SCID(+/+) chimeric mice [N2F1] compared with non-transplanted cyp3a (KO/KO)/uPA(+/+)/SCID(+/+) mice [N2F1]) | metabolites detected in blood plasma [3, 4] | unchanged nefazodone in blood plasma [3, 4] | metabolites detected in urine ([3]; PXB mice, 10 mg free/kg peroral, urine 0 to 24 hours after administration) | metabolites detected in blood plasma [3, 5] | unchanged nefazodone in blood plasma [3, 5] | metabolites detected in urine ([3]; SCID(+/+) mice, 10 mg free/kg peroral, urine 0 to 24 hours after administration) | human-type metabolites detected in blood plasma, in addition to Triazoledione metabolite [3, 6] | unchanged nefazodone in blood plasma [3, 6] | human-type metabolites detected in urine ([3]; cyp3a (KO/KO)/uPA(+/+)/SCID(+/+) chimeric mice [N4F1], 10 mg free/kg peroral, urine 0 to 24 hours after administration) | metabolic profiles ([3]; cyp3a (KO/KO)/uPA(+/+)/SCID(+/+) chimeric mice, unlike PXB mice and SCID(+/+) mice)
1 | Cc1ncc2n1-c1ccc(Cl)cc1C(c1ccccc1F)=NC2 [MDZ, Midazolam] | almost the same | lower than that of the PXB mice | almost the same as that of the non-transplanted |  |  |  |  |  |  |  |  |  | 
2 | CCc1nn(CCCN2CCN(c3cccc(Cl)c3)CC2)c(=O)n1CCOc1ccccc1 [nefazodone hydrochloride] |  |  |  | Triazoledione metabolite alone was detected | not detected | metabolite C alone was detected | Triazoledione metabolite alone was detected | not detected | metabolite C alone was detected | OH-NEF and p-OH-NEF | detected | mCPP and metabolite D | reflected the human drug-metabolizing system
